Holding throughout (test): biochemical
Parameters in all cases: KINOMEscan scanMAX active site-directed competition binding assay, percent of control, 468 kinases
Common to all, as to details: competition binding, percent of control

For one assay, the target named is ACVR2A (Homo sapiens, UniProt P27037). A digest of the protocol: (§1)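 KINOMEscan active site-directed competition binding assay against 468 human kinases with 100 μM S-carvone. Binding expressed as % of control, with 35% of control as the inhibition threshold.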
The target in a further assay is AKT1 (Homo sapiens, UniProt P31749). The procedure, abridged:
as §1

The target in another assay is BRAF(V600E) (Homo sapiens, UniProt P15056, V600E). The procedure, abridged: as §1
For another assay, the target named is CDK7 (Homo sapiens, UniProt P50613). The procedure, abridged: as §1
In a further assay the target is CDKL1 (Homo sapiens, UniProt Q00532). The procedure, abridged: as §1
For a further assay, the target named is CSNK2A2 (Homo sapiens, UniProt P19784). The procedure, abridged: as §1
For a further assay, the target named is T1, DLK (Homo sapiens, UniProt Q12852).
T1 construct: gene MAP3K12
A digest of the protocol: as §1

Another assay concerns the target EGFR(E746-A750del) (Homo sapiens, UniProt P00533, DEL746-750). The procedure, abridged:
as §1

A further assay has as its target EPHA4 (Homo sapiens, UniProt P54764). A digest of the protocol:
as §1

In the next assay the target is FLT3(ITD,F691L) (Homo sapiens, UniProt P36888, F691L/ITD). The procedure, abridged: as §1
The target of another assay is GSK3A (Homo sapiens, UniProt P49840). The procedure, abridged:
as §1

The next assay deals with MAP3K2 (Homo sapiens, UniProt Q9Y2U5). The procedure, abridged:
as §1

The target of the next assay is NEK5 (Homo sapiens, UniProt Q6P3R8). The procedure, abridged: as §1
The next assay deals with PHKG2 (Homo sapiens, UniProt P15735). A digest of the protocol:
as §1

The target of a further assay is PLK4 (Homo sapiens, UniProt O00444). A digest of the protocol:
as §1

For the next assay, the target named is RIOK1 (Homo sapiens, UniProt Q9BRS2). The procedure, abridged:
as §1

A further assay deals with RIOK3 (Homo sapiens, UniProt O14730). The procedure, abridged: as §1
A further assay addresses STK33 (Homo sapiens, UniProt Q9BYT3). The procedure, abridged: as §1
For the next assay, the target named is STK39 (Homo sapiens, UniProt Q9UEW8). The procedure, abridged: as §1
The next assay deals with T2, TAK1 (Homo sapiens, UniProt O43318).
T2 construct: gene MAP3K7
A digest of the protocol: as §1

The target of another assay is TBK1 (Homo sapiens, UniProt Q9UHD2). A digest of the protocol:
as §1

In the next assay the target is ZAP70 (Homo sapiens, UniProt P43403). A digest of the protocol: as §1
Sequence of ZAP70 (P43403 whole entry): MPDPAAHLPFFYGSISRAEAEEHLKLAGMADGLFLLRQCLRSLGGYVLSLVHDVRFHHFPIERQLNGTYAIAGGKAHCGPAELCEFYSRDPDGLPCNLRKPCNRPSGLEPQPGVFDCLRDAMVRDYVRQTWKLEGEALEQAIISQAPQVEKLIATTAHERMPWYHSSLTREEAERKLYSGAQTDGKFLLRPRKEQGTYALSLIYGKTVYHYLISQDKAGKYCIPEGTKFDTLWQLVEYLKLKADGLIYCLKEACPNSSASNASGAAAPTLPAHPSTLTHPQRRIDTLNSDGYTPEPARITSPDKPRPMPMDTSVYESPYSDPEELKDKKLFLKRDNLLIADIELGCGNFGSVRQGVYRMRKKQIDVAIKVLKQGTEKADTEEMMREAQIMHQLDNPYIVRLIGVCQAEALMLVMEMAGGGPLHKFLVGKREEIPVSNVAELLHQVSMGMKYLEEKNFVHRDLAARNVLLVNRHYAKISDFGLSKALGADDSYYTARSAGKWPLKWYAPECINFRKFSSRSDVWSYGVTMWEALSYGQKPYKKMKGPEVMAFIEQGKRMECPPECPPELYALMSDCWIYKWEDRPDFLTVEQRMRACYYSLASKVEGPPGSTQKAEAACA

Sequence of STK33 (Q9BYT3 whole entry): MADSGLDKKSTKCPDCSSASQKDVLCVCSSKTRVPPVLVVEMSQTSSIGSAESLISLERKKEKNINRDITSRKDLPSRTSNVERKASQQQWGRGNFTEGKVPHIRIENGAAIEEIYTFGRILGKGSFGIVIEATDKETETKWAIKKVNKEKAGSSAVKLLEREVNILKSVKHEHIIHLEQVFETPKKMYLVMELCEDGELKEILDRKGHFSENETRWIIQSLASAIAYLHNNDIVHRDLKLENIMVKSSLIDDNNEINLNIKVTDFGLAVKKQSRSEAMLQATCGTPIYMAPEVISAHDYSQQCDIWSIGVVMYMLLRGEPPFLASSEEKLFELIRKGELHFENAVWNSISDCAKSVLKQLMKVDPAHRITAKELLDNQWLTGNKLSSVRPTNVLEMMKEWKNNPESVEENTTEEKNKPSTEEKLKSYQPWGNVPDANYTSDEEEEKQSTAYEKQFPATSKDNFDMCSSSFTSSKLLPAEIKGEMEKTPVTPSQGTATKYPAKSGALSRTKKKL
Sequence of AKT1 (P31749 whole entry): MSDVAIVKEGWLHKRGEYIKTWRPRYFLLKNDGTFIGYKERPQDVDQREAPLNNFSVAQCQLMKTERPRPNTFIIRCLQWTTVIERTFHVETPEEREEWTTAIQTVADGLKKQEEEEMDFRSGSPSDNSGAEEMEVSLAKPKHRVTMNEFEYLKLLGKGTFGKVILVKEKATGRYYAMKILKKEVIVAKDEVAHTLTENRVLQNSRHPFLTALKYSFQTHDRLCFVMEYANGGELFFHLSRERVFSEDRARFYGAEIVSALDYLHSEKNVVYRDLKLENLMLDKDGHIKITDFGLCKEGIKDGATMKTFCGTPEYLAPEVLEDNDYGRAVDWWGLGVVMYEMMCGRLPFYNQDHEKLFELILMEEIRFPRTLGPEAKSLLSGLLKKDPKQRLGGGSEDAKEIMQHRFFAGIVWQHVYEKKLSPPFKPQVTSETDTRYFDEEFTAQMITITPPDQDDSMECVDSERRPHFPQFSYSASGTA
Sequence of FLT3(ITD,F691L) (P36888 564-993 F691L): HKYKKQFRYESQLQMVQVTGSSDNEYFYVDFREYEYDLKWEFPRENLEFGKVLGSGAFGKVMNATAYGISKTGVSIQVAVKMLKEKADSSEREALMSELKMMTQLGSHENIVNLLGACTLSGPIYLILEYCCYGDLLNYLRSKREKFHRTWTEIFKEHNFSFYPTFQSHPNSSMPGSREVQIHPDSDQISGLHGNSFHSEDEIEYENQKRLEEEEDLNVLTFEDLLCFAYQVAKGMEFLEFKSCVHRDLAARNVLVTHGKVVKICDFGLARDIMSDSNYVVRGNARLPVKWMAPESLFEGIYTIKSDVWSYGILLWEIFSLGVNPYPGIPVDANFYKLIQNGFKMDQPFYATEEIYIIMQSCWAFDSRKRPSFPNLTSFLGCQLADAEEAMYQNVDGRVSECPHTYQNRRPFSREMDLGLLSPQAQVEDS
Sequence of NEK5 (Q6P3R8 whole entry): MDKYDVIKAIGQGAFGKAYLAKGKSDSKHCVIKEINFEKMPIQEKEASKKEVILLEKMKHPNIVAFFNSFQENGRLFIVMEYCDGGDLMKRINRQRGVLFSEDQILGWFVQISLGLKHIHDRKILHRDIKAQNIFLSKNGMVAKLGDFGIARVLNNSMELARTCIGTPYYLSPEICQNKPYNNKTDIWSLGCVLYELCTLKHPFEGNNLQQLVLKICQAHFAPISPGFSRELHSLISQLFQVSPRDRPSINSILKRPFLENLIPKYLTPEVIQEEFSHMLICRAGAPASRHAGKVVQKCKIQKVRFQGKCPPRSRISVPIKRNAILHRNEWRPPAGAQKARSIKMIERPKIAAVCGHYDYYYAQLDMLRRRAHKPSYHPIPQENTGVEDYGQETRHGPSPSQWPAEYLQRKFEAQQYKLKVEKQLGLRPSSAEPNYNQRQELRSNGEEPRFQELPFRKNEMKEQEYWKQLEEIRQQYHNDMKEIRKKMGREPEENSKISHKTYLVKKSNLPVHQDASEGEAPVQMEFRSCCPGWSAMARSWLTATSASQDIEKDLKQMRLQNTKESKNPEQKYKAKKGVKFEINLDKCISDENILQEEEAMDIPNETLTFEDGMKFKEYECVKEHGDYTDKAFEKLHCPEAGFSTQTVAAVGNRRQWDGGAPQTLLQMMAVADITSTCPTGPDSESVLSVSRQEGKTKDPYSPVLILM
Sequence of EPHA4 (P54764 whole entry): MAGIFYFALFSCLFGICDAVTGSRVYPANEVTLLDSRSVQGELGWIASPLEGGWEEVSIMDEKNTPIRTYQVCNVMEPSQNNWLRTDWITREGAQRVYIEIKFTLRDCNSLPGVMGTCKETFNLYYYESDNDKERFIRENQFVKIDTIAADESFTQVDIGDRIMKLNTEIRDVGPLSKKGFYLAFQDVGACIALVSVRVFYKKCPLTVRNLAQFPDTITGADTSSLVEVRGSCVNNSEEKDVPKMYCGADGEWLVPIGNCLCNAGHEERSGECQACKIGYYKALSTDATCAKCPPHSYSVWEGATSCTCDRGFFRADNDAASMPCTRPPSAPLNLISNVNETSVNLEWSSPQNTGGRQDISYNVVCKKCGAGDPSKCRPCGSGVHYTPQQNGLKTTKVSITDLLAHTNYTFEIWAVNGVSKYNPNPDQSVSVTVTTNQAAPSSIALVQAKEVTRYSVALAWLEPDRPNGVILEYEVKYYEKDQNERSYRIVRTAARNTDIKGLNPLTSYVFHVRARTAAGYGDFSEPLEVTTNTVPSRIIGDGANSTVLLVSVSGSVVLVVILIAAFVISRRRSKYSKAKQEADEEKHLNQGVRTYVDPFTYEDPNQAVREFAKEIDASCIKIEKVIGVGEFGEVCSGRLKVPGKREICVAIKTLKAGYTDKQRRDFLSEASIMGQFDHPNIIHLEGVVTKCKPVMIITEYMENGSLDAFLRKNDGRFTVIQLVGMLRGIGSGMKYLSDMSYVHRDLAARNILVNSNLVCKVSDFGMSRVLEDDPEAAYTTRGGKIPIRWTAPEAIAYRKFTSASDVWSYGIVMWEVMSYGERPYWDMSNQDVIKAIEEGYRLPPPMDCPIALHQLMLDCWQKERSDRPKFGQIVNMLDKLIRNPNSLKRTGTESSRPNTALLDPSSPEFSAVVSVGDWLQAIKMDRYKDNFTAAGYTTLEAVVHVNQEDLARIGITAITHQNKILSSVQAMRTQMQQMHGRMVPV
Sequence of ACVR2A (P27037 whole entry): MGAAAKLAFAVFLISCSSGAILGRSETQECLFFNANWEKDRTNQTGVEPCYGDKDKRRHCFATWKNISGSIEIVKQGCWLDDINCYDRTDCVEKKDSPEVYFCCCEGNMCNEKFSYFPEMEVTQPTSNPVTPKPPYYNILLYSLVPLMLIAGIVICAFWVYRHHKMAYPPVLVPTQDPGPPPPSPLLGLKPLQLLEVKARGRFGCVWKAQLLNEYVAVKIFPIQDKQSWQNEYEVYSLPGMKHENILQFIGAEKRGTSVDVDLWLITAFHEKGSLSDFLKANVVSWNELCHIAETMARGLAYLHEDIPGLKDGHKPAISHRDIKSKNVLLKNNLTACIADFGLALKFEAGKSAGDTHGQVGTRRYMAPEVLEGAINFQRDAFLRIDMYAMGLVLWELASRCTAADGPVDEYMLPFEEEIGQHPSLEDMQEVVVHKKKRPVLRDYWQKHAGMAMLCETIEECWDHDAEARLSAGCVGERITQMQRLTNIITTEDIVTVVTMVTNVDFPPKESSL
Sequence of CSNK2A2 (P19784 whole entry): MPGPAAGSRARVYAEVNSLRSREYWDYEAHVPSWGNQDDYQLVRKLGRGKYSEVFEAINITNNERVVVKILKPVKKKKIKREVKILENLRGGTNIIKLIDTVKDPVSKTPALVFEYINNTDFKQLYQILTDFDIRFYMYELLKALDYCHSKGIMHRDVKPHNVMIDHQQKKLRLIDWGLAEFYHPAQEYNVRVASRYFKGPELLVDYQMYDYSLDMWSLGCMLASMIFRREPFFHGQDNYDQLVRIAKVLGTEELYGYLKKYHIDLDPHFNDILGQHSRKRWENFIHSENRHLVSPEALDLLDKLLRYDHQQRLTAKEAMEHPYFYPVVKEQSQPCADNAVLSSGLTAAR
Sequence of CDKL1 (Q00532 whole entry): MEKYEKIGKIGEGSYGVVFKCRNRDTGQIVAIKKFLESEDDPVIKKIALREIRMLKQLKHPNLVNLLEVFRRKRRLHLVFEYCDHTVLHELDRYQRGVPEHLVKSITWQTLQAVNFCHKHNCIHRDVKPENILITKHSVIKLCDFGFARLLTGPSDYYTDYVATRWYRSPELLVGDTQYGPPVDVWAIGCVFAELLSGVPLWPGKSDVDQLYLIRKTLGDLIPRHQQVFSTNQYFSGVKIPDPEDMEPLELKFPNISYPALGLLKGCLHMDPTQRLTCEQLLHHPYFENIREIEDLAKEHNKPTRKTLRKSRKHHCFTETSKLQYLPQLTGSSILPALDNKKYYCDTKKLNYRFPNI

As for `C=C(C)[C@H]1CC=C(C)C(=O)C1` [S-carvone], the remaining binding at 100 µM worked out at 90% at ACVR2A; 84% at AKT1; 90% on BRAF(V600E); 65% at CDK7; 70% at CDKL1; 87% at CSNK2A2. Also, the remaining binding at 100 µM at DLK was 88%; on EGFR(E746-A750del), 62%; on EPHA4 it was 84%; at FLT3(ITD,F691L) it was 71%; at GSK3A, 100%; on MAP3K2, 58%. Also, the remaining binding at 100 µM at NEK5 came to 93%; at PHKG2 it was 84%; at PLK4, 76%; on RIOK1 it was 100%; on RIOK3 it was 89%; on STK33, 100%. Also, the remaining binding at 100 µM on STK39 is 80%; at TAK1, 79%; at TBK1, 64%; on ZAP70, 84%.

For the origin of these results see article PMC10174618, “Monoterpenoid aryl hydrocarbon receptor allosteric antagonists protect against ultraviolet skin damage in female mice” (Nature Communications, 2023).
